Results from US11078170B2 (Assembly Biosciences, Inc., priority 2017, dated 2021).

Test system: HBV viral production from HepAD38 cells
Assay: Activity of test compounds on viral production from HepAD38 cells (viral load by qPCR of HBV core sequence in supernatant)
Type: cell-based
Details: Hepatitis B virus, 120 h, 5 days incubation, HBV DNA in supernatant by qPCR, top concentration 10 μM, read-out: Viral Load EC50 Activity range
How it was run: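 HepAD38 cells, 50,000/well in tetracycline-free 2% FBS medium, treated 5 days at 37° C. with compound from 10 μM top concentration. HBV DNA in supernatant quantified by TaqMan qPCR of core sequence against DNA standards, relative to DMSO wells; CellTiter-Glo viability read in parallel. EC50/CC50 from four-parameter logistic fit.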

How did the EC50 turn out when COc1ccc(-c2cnc(C3CC(C(=O)Nc4ccc(F)c(Cl)c4)N(C)S(=O)(=O)N3)s2)cc1 (racemic) [HBV-CSU-250, Cis-N-(3-Chloro-4-fluorophenyl)-5-(5-(4-methoxyphenyl)thiazol-2-yl)-2-methyl-1,2,6-thiadiazinane-3-carboxamide 1,1-dioxide] was run?
Its EC50 is < 1000 nM.

How did the EC50 turn out when [2H]C([2H])([2H])N1[C@@H](C(=O)Nc2ccc(F)c(Cl)c2)C[C@@H](c2ncc(-c3cn(C)cn3)s2)NS1(=O)=O (relative stereo) [HBV-CSU-338-ISO-II, Cis-N-(3-Chloro-4-fluorophenyl)-2-(methyl-d3)-5-(5-(1-methyl-1H-imidazol-4-yl)thiazol-2-yl)-1,2,6-thiadiazinane-3-carboxamide 1,1-dioxide] was run?
Its EC50 is 1000 to 5000 nM.

How did the EC50 turn out when COCCN1[C@H](C(=O)Nc2ccc(F)c(Cl)c2)C[C@H](c2nccs2)NS1(=O)=O [HBV-CSU-058-ISO-II, Cis-N-(3-chloro-4-fluorophenyl)-2-(2-methoxyethyl)-5-(thiazol-2-yl)-1,2,6-thiadiazinane-3-carboxamide 1,1-dioxide] was run?
The EC50 was < 1000 nM.

How did the EC50 turn out when CN1[C@@H](C(=O)Nc2ccc(F)c(Cl)c2)C[C@@H](c2cc(-c3cn[nH]c3)cs2)NS1(=O)=O [HBV-CSU-245-ISO-II] was run?
Its EC50 is < 1000 nM.

For CN1[C@H](C(=O)Nc2ccc(F)c(Cl)c2)C[C@H](c2ncc(Br)s2)NS1(=O)=O [HBV-CSU-122-ISO-I, (3S,5R)-5-(5-bromothiazol-2-yl)-N-(3-chloro-4-fluorophenyl)-2-methyl-1,2,6-thiadiazinane-3-carboxamide 1,1-dioxide], which EC50 is on record?
The EC50 was < 1000 nM.

For [2H]C1[C@]([2H])(C(=O)Nc2ccc(F)c(Cl)c2)N(C)S(=O)(=O)N[C@]1([2H])c1ccc(-c2cn(C)cn2)s1 (stereo in doubt) [HBV-CSU-375-ISO-II, Cis-N-(3-Chloro-4-fluorophenyl)-2-methyl-5-(5-(1-methyl-1H-imidazol-4-yl)thiophen-2-yl)-1,2,6-thiadiazinane-3,4,5-d3-3-carboxamide 1,1-dioxide], which EC50 is on record?
Its EC50 is 1000 to 5000 nM.

With CN1C(C(=O)Nc2ccc(F)c(Cl)c2)CC(c2cc(-c3ccc(F)cc3)cs2)NS1(=O)=O (stereo not drawn) [HBV-CSU-239] as the molecule, how does the EC50 read?
The EC50 was < 1000 nM.

For CN1C(C(=O)Nc2ccc(F)c(Cl)c2)CC(c2ncc(-c3cncn3C)s2)NS1(=O)=O (racemic) [HBV-CSU-277, Cis-N-(3-Chloro-4-fluorophenyl)-2-methyl-5-(5-(1-methyl-1H-imidazol-5-yl)thiazol-2-yl)-1,2,6-thiadiazinane-3-carboxamide 1,1-dioxide], which EC50 is on record?
The EC50 was < 1000 nM.

With CN1[C@H](C(=O)Nc2cc(F)c(F)c(Br)c2)C[C@H](c2cccs2)NS1(=O)=O [HBV-CSU-049-ISO-I, Cis-N-(3-Bromo-4,5-difluorophenyl)-2-methyl-5-(thiophen-2-yl)-1,2,6-thiadiazinane-3-carboxamide 1,1-dioxide] as the molecule, how does the EC50 read?
Its EC50 is < 1000 nM.

How did the EC50 turn out when [2H]C([2H])([2H])N1[C@H](C(=O)Nc2ccc(F)c(Cl)c2)C[C@H](c2ncc(-c3cn(C([2H])([2H])[2H])cn3)s2)NS1(=O)=O [HBV-CSU-337-ISO-I, Cis-N-(3-Chloro-4-fluorophenyl)-2-(methyl-d3)-5-(5-(1-(methyl-d3)-1H-imidazol-4-yl)thiazol-2-yl)-1,2,6-thiadiazinane-3-carboxamide 1,1-dioxide] was run?
The EC50 was < 1000 nM.

CN1[C@@H](C(=O)Nc2ccc(F)c(Cl)c2)C[C@@H](c2cc(-c3cncn3C)cs2)NS1(=O)=O (relative stereo) [HBV-CSU-285-ISO-II, Cis-N-(3-Chloro-4-fluorophenyl)-2-methyl-5-(4-(1-methyl-1H-imidazol-5-yl)thiophen-2-yl)-1,2,6-thiadiazinane-3-carboxamide 1,1-dioxide] was tested. Which EC50 did it give?
The EC50 was < 1000 nM.

For CN1C(C(=O)Nc2ccc(F)c(Cl)c2)CC(c2ccc(-c3cncs3)s2)NS1(=O)=O (racemic) [HBV-CSU-268, Cis-N-(3-Chloro-4-fluorophenyl)-2-methyl-5-(5-(thiazol-5-yl)thiophen-2-yl)-1,2,6-thiadiazinane-3-carboxamide 1,1-dioxide], which EC50 is on record?
Its EC50 is < 1000 nM.

How did the EC50 turn out when CN1C(C(=O)Nc2ccc(F)c(Cl)c2)CC(c2ccc(-c3cnn(C)c3)cc2)NS1(=O)=O (racemic) [HBV-CSU-246, Cis-N-(3-Chloro-4-fluorophenyl)-2-methyl-5-(4-(1-methyl-1H-pyrazol-4-yl)phenyl)-1,2,6-thiadiazinane-3-carboxamide 1,1-dioxide] was run?
The EC50 was < 1000 nM.

With CN1C(C(=O)Nc2ccc(F)c(Cl)c2)CC(c2cccc(OC(F)(F)F)c2)NS1(=O)=O (racemic) [HBV-CSU-262, Cis-N-(3-Chloro-4-fluorophenyl)-2-methyl-5-(3-(trifluoromethoxy)phenyl)-1,2,6-thiadiazinane-3-carboxamide 1,1-dioxide] as the molecule, how does the EC50 read?
Its EC50 is < 1000 nM.

For [2H]C([2H])([2H])N1[C@@H](C(=O)Nc2ccc(F)c(Cl)c2)C[C@@H](c2ncc(Br)s2)NS1(=O)=O [HBV-CSU-336-ISO-II, 5-(5-Bromothiazol-2-yl)-N-(3-chloro-4-fluorophenyl)-2-(methyl-d3)-1,2,6-thiadiazinane-3-carboxamide 1,1-dioxide], which EC50 is on record?
Its EC50 is 1000 to 5000 nM.

With COc1ccccc1C1CC(C(=O)Nc2ccc(F)c(Cl)c2)N(C)S(=O)(=O)N1 (stereo not drawn) [HBV-CSU-215] as the molecule, how does the EC50 read?
The EC50 was 1000 to 5000 nM.

Which EC50 does the source give for [2H]C([2H])([2H])N1[C@H](C(=O)Nc2ccc(F)c(Cl)c2)C[C@H](c2ccc(Br)s2)NS1(=O)=O [HBV-CSU-370-ISO-I, Cis-5-(5-bromothiophen-2-yl)-N-(3-chloro-4-fluorophenyl)-2-(methyl-d3)-1,2,6-thiadiazinane-3-carboxamide 1,1-dioxide] here?
Its EC50 is < 1000 nM.

Which EC50 does the source give for CN1[C@@H](C(=O)Nc2ccc(F)c(Cl)c2)C[C@@H](c2ccc(-c3c[nH]cn3)s2)NS1(=O)=O [HBV-CSU-331-ISO-II, Cis-5-(5-(1H-imidazol-4-yl)thiophen-2-yl)-N-(3-chloro-4-fluorophenyl)-2-methyl-1,2,6-thiadiazinane-3-carboxamide 1,1-dioxide] here?
Its EC50 is 1000 to 5000 nM.

Which EC50 does the source give for CN1[C@H](C(=O)Nc2ccc(F)c(Cl)c2)C[C@H](c2cc(-c3ccccn3)cs2)NS1(=O)=O [HBV-CSU-168-ISO-II, Cis-N-(3-chloro-4-fluorophenyl)-2-methyl-5-(4-(pyridin-2-yl)thiophen-2-yl)-1,2,6-thiadiazinane-3-carboxamide 1,1-dioxide] here?
The EC50 was < 1000 nM.

O=C(Nc1ccc(F)c(Cl)c1)[C@H]1C[C@@H](c2nccs2)NS(=O)(=O)N1CCOC(F)(F)F [HBV-CSU-072-ISO-I, Cis-N-(3-Chloro-4-fluorophenyl)-5-(thiazol-2-yl)-2-(2-(trifluoromethoxy)ethyl)-1,2,6-thiadiazinane-3-carboxamide 1,1-dioxide] was tested. Which EC50 did it give?
Its EC50 is > 5000 nM.

Which EC50 does the source give for CN1[C@@H](C(=O)Nc2ccc(F)c(Cl)c2)C[C@@H](c2ncc(-c3cn[nH]c3)s2)NS1(=O)=O [HBV-CSU-254-ISO-II, Cis-5-(5-(1H-pyrazol-4-yl)thiazol-2-yl)-N-(3-chloro-4-fluorophenyl)-2-methyl-1,2,6-thiadiazinane-3-carboxamide 1,1-dioxide] here?
Its EC50 is 1000 to 5000 nM.
